Earlier results as cited in US20070281910A1, “Salicyl alcohol creatine phosphate prodrugs, compositions and uses thereof” (XenoPort, Inc., priority 2006, published 2007).
Where two headings read alike, the source gives them in different places.

What was measured:
[1] = animals fed a diet containing up to 1%
[2] = not given; remark: listed apart in the source

## NC1=NCCN1CC(=O)O [cyclocreatine]
[1]
  adverse effects: do not exhibit adverse effects

## CN(CC(=O)O)C(=N)NP(=O)(O)O [Creatine phosphate, creatine phosphate]
Patients with cardiac diseases, intravenous injection up to 8 gm/day
  adverse side effects: without adverse side effects

## CN(CC(=O)O)C(=N)N [creatine]
[2]; creatine supplementation over weeks
  overall increase of creatine phosphate levels: < 50%
[2]; following oral creatine supplementation
  duration of increase in tissue creatine phosphate levels: > 14 days
[2]; healthy volunteers, oral creatine administration
  increase of cerebral creatine phosphate: about 10%

## CN(CC(=O)O)C(=N)N.O [creatine monohydrate]
Athletes and body builders, 2-3 gm/day
  adverse side effects: without adverse side effects
